Results reported in ChEMBL document CHEMBL1201862, “PubChem BioAssay data set” (2004).
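Protocol summary: plate cells (96-well), add compound at 5 concentrations, incubate 48 h, interpolate endpoints linearly. GI50 = concentration required for 50% inhibition of growth.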 The source made the active and inactive calls. Rule as the data show it: active = GI50 up to about 1.1 µM and inactive = higher.

Assays:
Assay in all cases: growth of human tumour cells (NCI), 48 h
[1] = test system: 786-0
[2] = test system: CCRF-CEM
[3] = test system: HOP-62
[4] = test system: HOP-92
[5] = test system: Hs-578T
[6] = test system: IGROV-1
[7] = test system: LOX IMVI
[8] = test system: MDA-MB-435
[9] = test system: NCI-H226
[10] = test system: NCI-H23
[11] = test system: NCI-H460
[12] = test system: NCI-H522
[13] = test system: OVCAR-3
[14] = test system: SK-MEL-2
[15] = test system: SN12C
[16] = test system: SW-620
[17] = test system: TK-10
[18] = test system: U-251
[19] = test system: UACC-62
[20] = test system: UO-31

SMILES	GI50 [1]	GI50 [2]	GI50 [3]	GI50 [4]	GI50 [5]	GI50 [6]	GI50 [7]	GI50 [8]	GI50 [9]	GI50 [10]	GI50 [11]	GI50 [12]	GI50 [13]	GI50 [14]	GI50 [15]	GI50 [16]	GI50 [17]	GI50 [18]	GI50 [19]	GI50 [20]
COc1cc(C2CC(C)(O)Oc3cc4c(cc32)OCO4)cc(OC)c1OC (configuration not stated)	0.375 µM (active)	0.34 µM (active)	0.501 µM (active)	2.56 µM (inactive)	0.263 µM (active)	0.668 µM (active)	0.839 µM (active)	0.169 µM (active)	0.891 µM (active)	0.474 µM (active)	0.389 µM (active)	0.266 µM (active)	0.315 µM (active)	1.04 µM (active)	0.977 µM (active)	0.33 µM (active)	61 µM (inactive)	0.358 µM (active)	0.23 µM (active)	
O=C(CC1C=CCS1(=O)=O)NCc1ccccc1 (configuration not stated)	> 100 µM (inactive)	> 100 µM (inactive)	> 100 µM (inactive)	> 100 µM (inactive)	> 100 µM (inactive)	> 100 µM (inactive)	> 100 µM (inactive)	> 100 µM (inactive)	> 100 µM (inactive)	> 100 µM (inactive)	> 100 µM (inactive)	> 100 µM (inactive)	> 100 µM (inactive)		> 100 µM (inactive)	> 100 µM (inactive)	> 100 µM (inactive)	> 100 µM (inactive)	> 100 µM (inactive)	> 100 µM (inactive)
COc1ccc(/C=N\NC(=O)Nc2cccc3ccccc23)cc1	11.4 µM (inactive)	> 100 µM (inactive)	11 µM (inactive)	21.4 µM (inactive)	6.75 µM (inactive)	17.3 µM (inactive)	13.1 µM (inactive)	4.06 µM (inactive)	28.2 µM (inactive)	34.6 µM (inactive)	10 µM (inactive)	15.6 µM (inactive)		9.14 µM (inactive)	49.3 µM (inactive)	51.6 µM (inactive)	20.7 µM (inactive)	13.9 µM (inactive)		35.3 µM (inactive)
CC(C)(C)C(=O)Oc1ccc(/C=C/C(=O)c2ccc(OC(=O)C(C)(C)C)cc2)cc1	36.7 µM (inactive)	6.53 µM (inactive)	82.2 µM (inactive)	> 100 µM (inactive)	18 µM (inactive)	> 100 µM (inactive)	44.5 µM (inactive)	55.2 µM (inactive)	> 100 µM (inactive)	35.7 µM (inactive)	> 100 µM (inactive)	3.12 µM (inactive)	27.5 µM (inactive)	> 100 µM (inactive)	42.8 µM (inactive)	> 100 µM (inactive)	> 100 µM (inactive)	40.2 µM (inactive)	> 100 µM (inactive)	
Cc1ccc(Nc2nc(=O)c3c4ccccc4n(C(=O)OC(C)(C)C)c3s2)cc1	15.3 µM (inactive)	30.3 µM (inactive)	27.9 µM (inactive)	23.1 µM (inactive)	33.2 µM (inactive)	21.9 µM (inactive)	18.7 µM (inactive)	4.9 µM (inactive)		23.1 µM (inactive)	15.7 µM (inactive)	22.5 µM (inactive)	23.1 µM (inactive)	20.7 µM (inactive)		28.4 µM (inactive)	37.8 µM (inactive)	30.1 µM (inactive)	18.5 µM (inactive)	5.9 µM (inactive)
CC(C)=CCC/C(C)=C/CC/C(C)=C/CC/C(C=O)=C/CC/C(C)=C\CC/C(C)=C/CC/C(C)=C/CC/C(C)=C/CC1=CC(=O)C=CC1=O	67 µM (inactive)	72.8 µM (inactive)	> 100 µM (inactive)	> 100 µM (inactive)	62.4 µM (inactive)	31.8 µM (inactive)	80.2 µM (inactive)	56.4 µM (inactive)		22.9 µM (inactive)	> 100 µM (inactive)	14.9 µM (inactive)	54.2 µM (inactive)	31.8 µM (inactive)	> 100 µM (inactive)	> 100 µM (inactive)	> 100 µM (inactive)	69.7 µM (inactive)	21.1 µM (inactive)	> 100 µM (inactive)
COc1ccc(C2=Nn3c(nnc3-c3ccccc3)S/C2=C\c2ccc(-c3ccc([N+](=O)[O-])cc3)o2)cc1	24.9 µM (inactive)	5.7 µM (inactive)	52.4 µM (inactive)	54.8 µM (inactive)	33.7 µM (inactive)	56.9 µM (inactive)	25 µM (inactive)	5.83 µM (inactive)			27.4 µM (inactive)	12.8 µM (inactive)	23.3 µM (inactive)	15.8 µM (inactive)	18.2 µM (inactive)	24.2 µM (inactive)		22.6 µM (inactive)	48.3 µM (inactive)	36.4 µM (inactive)
O=[N+]([O-])c1ccc(S[C@@H]2[C@H]3c4c(-c5ccccc5)[nH]c(-c5ccccc5)c4[C@@H]2C[C@H]3Cl)cc1	2.62 µM (inactive)		3.56 µM (inactive)	0.895 µM (active)	5.08 µM (inactive)	2.79 µM (inactive)	3.1 µM (inactive)	3.58 µM (inactive)	6.71 µM (inactive)	2.38 µM (inactive)	2.4 µM (inactive)	2.9 µM (inactive)	3.33 µM (inactive)	11.2 µM (inactive)	2.94 µM (inactive)	3.37 µM (inactive)	4.99 µM (inactive)	4.17 µM (inactive)	2.83 µM (inactive)	1.62 µM (inactive)
O=C1C(=O)N(C2CCCCC2)C(=S)N1C1CCCCC1	> 100 µM (inactive)	> 100 µM (inactive)	> 100 µM (inactive)	> 100 µM (inactive)	> 100 µM (inactive)	> 100 µM (inactive)	> 100 µM (inactive)	> 100 µM (inactive)	> 100 µM (inactive)	> 100 µM (inactive)	> 100 µM (inactive)	7.76 µM (inactive)		> 100 µM (inactive)	> 100 µM (inactive)	> 100 µM (inactive)	> 100 µM (inactive)	> 100 µM (inactive)	> 100 µM (inactive)	> 100 µM (inactive)
N#CC1=C(N)N(/N=C/c2ccco2)C(c2ccco2)C1(C#N)C#N (configuration not stated)	17.2 µM (inactive)	4.76 µM (inactive)	23.2 µM (inactive)	16.6 µM (inactive)	22.2 µM (inactive)	14.6 µM (inactive)	14.2 µM (inactive)	21.3 µM (inactive)	18.6 µM (inactive)	19.6 µM (inactive)		15.3 µM (inactive)	18.2 µM (inactive)	24.1 µM (inactive)	26.9 µM (inactive)	11.2 µM (inactive)	17.4 µM (inactive)	18.9 µM (inactive)	17.6 µM (inactive)	18.6 µM (inactive)
O=C(c1ccco1)N(C(=S)OC12CC3CC(CC(C3)C1)C2)c1ccccc1	31.2 µM (inactive)	16.9 µM (inactive)	28.2 µM (inactive)	19.5 µM (inactive)	32.6 µM (inactive)		26.7 µM (inactive)	28.9 µM (inactive)	27.2 µM (inactive)	27.8 µM (inactive)	30.8 µM (inactive)	19.9 µM (inactive)	28.1 µM (inactive)	21.2 µM (inactive)	27.9 µM (inactive)	29 µM (inactive)	42.3 µM (inactive)	23.3 µM (inactive)	23.4 µM (inactive)	24.9 µM (inactive)
CC1(C)CC(=O)C(CC2C(=O)c3ccccc3C2=O)C(=O)C1C(=O)C(=O)Nc1cccc2ccc(O)cc12 (configuration not stated)	> 100 µM (inactive)	< 0.01 µM (active)		70.3 µM (inactive)	74.6 µM (inactive)	48.9 µM (inactive)	94.4 µM (inactive)	> 100 µM (inactive)	29 µM (inactive)	67.1 µM (inactive)	> 100 µM (inactive)	> 100 µM (inactive)	48.9 µM (inactive)	> 100 µM (inactive)	> 100 µM (inactive)	> 100 µM (inactive)	54 µM (inactive)	> 100 µM (inactive)	> 100 µM (inactive)	33.8 µM (inactive)
Cc1ccc2c3c(cnc2n1)C(=O)OCCN3C	> 100 µM (inactive)	> 100 µM (inactive)	> 100 µM (inactive)	> 100 µM (inactive)	> 100 µM (inactive)	> 100 µM (inactive)	> 100 µM (inactive)	> 100 µM (inactive)		> 100 µM (inactive)	> 100 µM (inactive)	> 100 µM (inactive)	> 100 µM (inactive)	> 100 µM (inactive)	> 100 µM (inactive)	> 100 µM (inactive)	> 100 µM (inactive)	> 100 µM (inactive)	> 100 µM (inactive)	> 100 µM (inactive)
CCCCCc1cc2cc3c(c(O)c2c(=O)[nH]1)C1(CCC3)C(=O)c2c(O)c3c(c(O)c2C1=O)C(=O)C(OC)=CC3=O (configuration not stated)	0.746 µM (active)	0.586 µM (active)	3.33 µM (inactive)	0.433 µM (active)	0.743 µM (active)	1.03 µM (active)	0.661 µM (active)	0.908 µM (active)	1.87 µM (inactive)	0.828 µM (active)	0.757 µM (active)	0.59 µM (active)	0.499 µM (active)	1.24 µM (inactive)	1.01 µM (active)	0.681 µM (active)		0.621 µM (active)	0.916 µM (active)	0.579 µM (active)
